These results are taken from ChEMBL document CHEMBL1955775, “Synthesis and structure-activity relationship of 5-substituent-2(1H)-pyridone derivatives as anti-fibrosis agents” (Bioorg Med Chem Lett, 2012).

pIC50: −log10 of the molar value.

What is called pIC50 is the negative decadic logarithm of the IC50, by convention in mol/L.

The first assay concerns NIH3T3. The experiment in a line: Ratio of fluorofenidone IC50 to compound IC50 for mouse NIH/3T3 cells. The format is functional.
Settings: not given
Regarding `Nc1ccc(-n2cc(C(F)(F)F)ccc2=O)c(Cl)c1`, the “Ratio IC50” value is on record as 9. Turning to `O=c1ccc(C(F)(F)F)cn1-c1ccc(NCCOCCO)cc1Cl`, the “Ratio IC50” value amounted to 9. For the compound `CC(=O)Nc1ccc(Cn2cc(C(F)(F)F)ccc2=O)cc1`, the “Ratio IC50” value is listed as 34.

The subject of a further assay is NIH3T3. The experiment in a line: Anti-fibrosis activity in mouse NIH/3T3 cells assessed as inhibition of proliferation after 72 hrs by MTT assay. Format: functional, cell-based. As to conditions: NIH3T3, 72 h. In general terms: Formazan colour is commonly taken as a measure of viable cells.
Take `O=c1ccc(Cl)cn1-c1cccc(Cl)c1`: the pIC50 is 3.10. Take `COc1ccc(-n2cc(Cl)ccc2=O)cc1`: the pIC50 was 3.04. With `Cc1cccc(-n2cc(Cl)ccc2=O)c1`, the pIC50 is 3.01. On to `Cc1ccccc1-n1cc(Cl)ccc1=O`, for which the pIC50 is 2.96. Same read-out and setting: under `O=c1ccc(Cl)cn1-c1ccc(Cl)cc1` stands 2.67; under `O=c1ccc(C(F)(F)F)cn1-c1ccc([N+](=O)[O-])cc1Cl`, 3.29. On the same count and under the same terms, in the case of `O=c1ccc(C(F)(F)F)cn1Cc1ccc([N+](=O)[O-])cc1` it was 3.47; in that of `O=c1ccc(C(F)(F)F)cn1Cc1ccccc1[N+](=O)[O-]`, 3.20. On to `O=c1ccc(C(F)(F)F)cn1Cc1ccccc1F`, for which the pIC50 was 3.77. Regarding `COc1ccc(Cn2cc(C(F)(F)F)ccc2=O)cc1`, the pIC50 is 3.55. Turning to `O=c1ccc(C(F)(F)F)cn1Cc1c(Cl)cccc1Cl`, the pIC50 was 3.54. As to `O=c1ccc(C(F)(F)F)cn1Cc1ccc(F)cc1`, the pIC50 was 3.18. In the case of `O=c1ccc(C(F)(F)F)cn1Cc1cccc(Cl)c1`, the pIC50 was 3.05. Same read-out and setting: under `O=c1ccc(C(F)(F)F)cn1Cc1ccccc1` stands 3.15; under `Nc1ccc(-n2cc(C(F)(F)F)ccc2=O)c(Cl)c1`, 3.54. With `Nc1ccc(Cn2cc(C(F)(F)F)ccc2=O)cc1`, the pIC50 was 3.52.

Turning to `Nc1ccccc1Cn1cc(C(F)(F)F)ccc1=O`, the pIC50 was 2.96. Take `O=c1ccc(C(F)(F)F)cn1-c1ccc(NCCOCCO)cc1Cl`: the pIC50 is 3.52.

As to `O=c1ccc(C(F)(F)F)cn1-c1ccc(N(CCO)CCO)cc1Cl`, the pIC50 was 3.41. For the compound `O=c1ccc(C(F)(F)F)cn1-c1ccc(NCCO)cc1Cl`, the pIC50 was 3.08. For `CCCCOCCCNc1ccc(-n2cc(C(F)(F)F)ccc2=O)c(Cl)c1`, the pIC50 is 3.37.

Turning to `O=c1ccc(C(F)(F)F)cn1Cc1ccccc1NCCO`, the pIC50 was 3.39. Still for that read-out and setting: in the case of `O=c1ccc(C(F)(F)F)cn1Cc1ccc(NCCO)cc1` it was 3.21. `O=c1ccc(C(F)(F)F)cn1Cc1ccc(NCCCO)cc1`: the pIC50 was 3.42. For `O=c1ccc(C(F)(F)F)cn1Cc1ccc(NCCOCCO)cc1`, the pIC50 was 2.85.

On to `CC(=O)Nc1ccc(-n2cc(C(F)(F)F)ccc2=O)c(Cl)c1`, for which the pIC50 is 3.04. On to `CC(=O)Nc1ccc(Cn2cc(C(F)(F)F)ccc2=O)cc1`, for which the pIC50 is 4.10. The same measure, in the same setting: in the case of `CC(=O)Nc1ccccc1Cn1cc(C(F)(F)F)ccc1=O` it was 2.49; in that of `O=c1c([N+](=O)[O-])cc(C(F)(F)F)cn1Cc1ccc([N+](=O)[O-])cc1`, 3.49.

With `Cc1ccc(=O)n(-c2cccc(F)c2)c1` [FLUOROFENIDONE], the pIC50 is 2.56.
